In US8394793B2, “Therapeutic agent for inflammatory bowel disease” (Nippon Shinyaku Co., Ltd., priority 2008, dated 2013):

System: colitis resulted by administration of an aqueous solution of dextran sulfate in rats
Test: Dextran sulfate-induced colitis in rats (Test Example 1)
Type: in vivo, rat
Settings: F 334 rats, 3% dextran sulfate in drinking water for 5 days, 5 mg/kg orally twice daily
Procedure: Rats (males; eight weeks age) of an F 334 strain (Japan SLC) were allowed free access to a 3% aqueous solution of dextran sulfate for five days and, after that, they were allowed free access to tap water for one day. The test substance was orally administered twice daily at the start of drinking of a 3% aqueous solution of dextran sulfate. After six days from the initiation of the administration, the large intestine was excised and its length was measured. With regard to the symptom score, (1) stool consistency, (2) fecal blood and (3) degree of body weight reduction from the previous day were evaluated in five stages as shown in the following Table 1 and a mean value thereof was calculated. As to the test substance, the compound A (5 mg/kg) was used. The test substance was administered by suspending in a 0.5% aqueous solution of methyl cellulose. A 0.5% aqueous solution of methyl cellulose was administered to the control group. Ten rats per group were used. [table] With regard to shortening of the large intestine, significant difference from the control group was tested by a t-test (*: p<0.05). With regard to the symptom score of colitis, significant difference from the control group was tested by a t-test (##: p<0.01).

Compound: CC(C)N(CCCCOCC(=O)NS(C)(=O)=O)c1cnc(-c2ccccc2)c(-c2ccccc2)n1 [compound A, 2-{4-[N-(5,6-diphenylpyrazin-2-yl)-N-isopropylamino]butyl-oxy}-N-(methylsulfonyl)acetamide]
- shortening of large intestine (length of the large intestine) (large intestine excised after six days, t-test vs control p<0.05, FIG. 1): significantly suppressed
- symptom score of colitis (stool consistency, fecal blood, body weight reduction) (t-test vs control p<0.01, FIG. 2): significantly suppressed
